# Data published in PMC12186697, “HypoxyStat, a small-molecule form of hypoxia therapy that increases oxygen-hemoglobin affinity” (Cell, 2025).
# Where “and” joins values, the source holds several entries; their conditions need not be identical. Identical values can stand only once.
# Columns and labels:
# [1] = parameters: method as in PMID 28337324; settings: Figure 2A, cited from earlier work
# Hb = tested on: Hb; parameters: method as in PMID 28337324; settings: Figure 2A; cited from earlier work
# [2] = molecular target: T1, hemoglobin (Hb) in human red blood cells (Homo sapiens, UniProt P69905); experiment: Oxy-hemoglobin dissociation curve (Hemox Analyzer), p50; format: biochemical
# T1 construct: incubated for at least one hour at 37C with whole blood before Hemox analysis; endogenous in cells; host or cells: human red blood cells / whole blood
# T1 sequence (P69905 2-142 limits assumed): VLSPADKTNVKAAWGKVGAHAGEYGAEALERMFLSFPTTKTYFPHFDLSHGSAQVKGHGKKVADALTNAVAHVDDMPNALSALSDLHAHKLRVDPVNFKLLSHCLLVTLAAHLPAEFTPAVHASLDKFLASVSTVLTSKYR
# T1 sequence (P68871 2-147 partner limits assumed): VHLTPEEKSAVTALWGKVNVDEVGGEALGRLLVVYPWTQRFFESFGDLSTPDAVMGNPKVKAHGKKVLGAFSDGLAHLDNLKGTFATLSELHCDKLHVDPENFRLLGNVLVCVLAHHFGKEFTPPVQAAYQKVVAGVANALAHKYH
# Description: One of the most extensively studied compounds for sickle cell anemia is GBT-440 (Voxelotor) (Figure 1B).[25] The extent of left-shifting can be assessed by determining the p50 or the partial pressure of oxygen at which half of the total Hb pool is bound to oxygen. We incubated human red blood cells with GBT-440 and observed a ~75% decrease in p50 (from ~28 to ~7 mmHg), consistent with previously reported values (Figure 1D). Experiments were performed using a HemOx analyzer that monitors oxygen saturation via Hb absorbance across a range of dissolved oxygen tensions. Upon further review of the sickle cell anemia literature, we found another compound, hereafter termed HypoxyStat (Figure 1B), which appeared to have a similar p50 as GBT-440.[26] We confirmed that HypoxyStat induced an ~82% decrease in p50 (Figure 1D).
# Oxy-hemoglobin dissociation analysis was performed by the UCSF RBC laboratory using the TCS Hemox Analyzer (TCS Medical Products Company, Huntington Valley, PA). Initial pO2 is set to 160 mmHg. Hemoglobin is fully oxygenated under these conditions (HbO% =100). Replacement of air with nitrogen lowers pO2 and is measured by Clark electrode along with the change in the absorbance spectrum of hemoglobin. At a pO2 of 0 mmHg, hemoglobin is fully deoxygenated (HbO% =0). The relation between pO2 and HbO% is plotted, and the pO2 at which HbO% = 50% is defined as P50. The typical sigmoid de-oxygenation curve of normal blood with a P50 of 26–28 mmHg is used as a control for incubation conditions and to ensure proper function of the Hemox analyzer. For left-shifter comparison, the compounds were dissolved in HEPES buffered saline and then incubated for at least one hour at 37C with whole blood before Hemox analysis. A control of whole blood incubated with vehicle is also reported.
# [3] = tested on: hypoxia transcriptional response (HIF); experiment: Hypoxia biomarkers in mice (plasma Epo, hematocrit, blood glucose, hypoxia-induced brain transcripts); format: in vivo, mouse; settings: GBT-440
# Description: Plasma Epo measurements were performed with R&D Systems Epo Elisa Kit (MEP00B) according to manufacturer directions. Briefly, whole blood was collected with anticoagulant before centrifugation within 30 minutes of collection and stored at −80C until day of analysis. On the day of Epo assay, samples were thawed and diluted 2-fold and incubated in the assay plate for two hours. Each well was washed five times before the addition of Epo Conjugate followed by a two-hour incubation. Each well was washed five times before adding Substrate Solution to develop for 30 minutes before addition of Stop Solution. The optical density of each well was determined at 450nm and correction wavelength of 540/570.
# Hematocrit was determined with an iStat VetScan 1 with Zoetis Chem 8+ cartridges. Blood glucose measurements were performed using OneTouch UltraPlus glucometer. Whole blood chemistry measurements were performed on a VetScan HM5.
# Half of the hindbrain was collected at necropsy and immediately flash frozen. For RNA extraction, a stainless-steel bead (Qiagen) and 1 mL TRIzol™ Reagent (Thermo Fisher Scientific) were added to the frozen samples, which were rapidly lysed using a tissue lyser (Qiagen) for five 1-minute cycles of 30 Hz frequency. Subsequent steps for RNA isolation were identical as previously described.[9] Reverse transcription was performed using the QuantiTect Reverse Transcription Kit (Qiagen) instructions. Briefly, gDNA was wiped out from samples containing 1 μg RNA. gDNA-free RNA samples were reverse transcribed following Qiagen’s instructions. […] For each set of triplicates, an average CT value was obtained, and the difference in average CT between the target gene and β-actin was calculated (ΔCT). Next, the difference in ΔCT value between each sample and the average of the normoxia samples was calculated (ΔΔCT). Relative expression of each gene was determined by calculating 2^−ΔΔCT.
# Ndufs4 KO mouse = Ndufs4 KO mouse model of Leigh syndrome (survival, body weight, temperature, behavior, neuropathology); format: in vivo
# Excerpt: We continuously bred Ndufs4 Het x Het mice to generate KO and controls for our experiments. Ndufs4+/− and WT mice were used as controls as they are identical in all previously reported assays. Ndufs4 mice were obtained directly from Jackson labs (#027058). Pups were weaned and genotyped at ~21 d after birth. The age of mice at the time of experiments is described throughout the text. Male and female mice were used throughout studies. All cages were provided with food and water, with hydrated gel provided to newly weaned cages. Body weights were recorded at every dosing. Mice were euthanized according to guidelines at 20% drop in peak body weight. All animal studies were approved by the Institutional Animal Care & Use Committee (IACUC) Program at UCSF/Gladstone.
# Mice were administered HypoxyStat at 600 mg/kg every other day or 400mg/kg daily via oral gavage. For the disease prevention experiments, KO mice that underwent daily dosing were dosed starting ~P30 for 1 week of 200mg/kg daily, followed by 400mg/kg daily to allow for gradual dose escalation. For the reversal study, KO mice were dosed once with 200mg/kg on postnatal day ~P55, followed by 400mg/kg daily. HypoxyStat was formulated as a suspension at 60 mg/mL, 40mg/ml or 80mg/ml depending on dose in 0.5%HPMC and stored at 4 °C. The formulation was determined to be stable for at least 8 weeks. Animal body weight was taken at time of dosing to determine appropriate dosing volume (10 mL/kg for every other day dosing, 5ml/kg for daily dosing). Vehicle treated mice were administered the same volume of 0.5% HPMC.
# Mice were euthanized via CO2 inhalation. To perfuse the whole body, the right atrium was nicked and a needle was inserted into the left ventricle. Ice-cold PBS was slowly injected first, followed immediately by 4% PFA solution. The brain was removed, stored in 4% PFA for 24–48 h, and then washed with PBS for 5 min (3 times). The brains were placed in 70% ethanol followed by paraffin embedding. For paraffin sections, brains were sagittally sectioned at 5 μm thickness. Prior to staining, sections were deparaffinized. Antigen retrieval was performed by heating the slides to boiling temperature in 10 mM sodium citrate solution (pH 6) in a microwave, followed by heating for 10 minutes. The sections were rinsed 3 times for 5 minutes each with PBS. They were then incubated in a blocking solution containing 5% donkey serum (DS) in PBS-Tx (PBS with 0.2% Triton X-100) for 60 minutes at room temperature. After blocking, sections were incubated overnight at 4C with the primary antibody IBA1 (Genetex GTX100042, 1:250) and NeuN (Sigma, MAB377, 1:500). Afterward, the sections were rinsed 3 times for 5 minutes with PBS-Tx. Next, they were incubated with a fluorophore-conjugated secondary antibodies (Invitrogen, A21206 or A31570) for 1 hour at room temperature. Following secondary antibody incubation, the sections were rinsed 3 times for 5 minutes with PBS-Tx, and then once for 5 minutes with PBS. Histology was quantified using either the percentage of Iba1+ positive signal or blinded scoring (on the scale of 1–5).
# The open field instrument (San Diego Instruments) was used to measure spontaneous locomotor activity. Mice were placed in open field chambers and allowed to acclimate for 5 min before movement tracking for 20min. Spontaneous locomotor activity was measured based on beam breaks and recorded by the instrument. Age of measurements is +/− 5 days for practical purposes without any age bias between groups.
# [4] = GBT-440 daily maximal dosing from P30
smiles,measurement,setting,value
CC(C)n1nccc1-c1ncccc1COc1cccc(O)c1C=O [GBT-440],Mouse PO blood:plasma,[1]; PO,63.2
same,Mouse PO half-life,[1]; PO,15.8 h
same,Cmax,[1]; mouse,2210 nM
same,Hb occupancy,Hb,6.5%
same,p50,"[2]; human red blood cells incubated 1 h with 10 mM compound, vehicle ~28 mmHg",7.2 mmHg and ~ 7 mmHg
same,decrease in p50,"[2]; human red blood cells incubated with compound, vs vehicle",~ 75%
same,hypoxia biomarker response compared with HypoxyStat and inhaled hypoxia,[3],significantly blunted response
same,lifespan of Ndufs4 KO mice vs vehicle,Ndufs4 KO mouse; GBT-440 daily maximal dosing (400 mg/kg after 1 week at 200 mg/kg) from P30,did not result in a significant lifespan extension
same,"spontaneous movement (open field), Ndufs4 KO mice",Ndufs4 KO mouse; [4],failed to rescue
same,"time on an accelerating rotating rod, Ndufs4 KO mice",Ndufs4 KO mouse; [4],failed to rescue
same,body temperature of Ndufs4 KO mice,"Ndufs4 KO mouse; GBT-440 daily maximal dosing from P30, ~P55",failed to rescue
